Laboratory results: patent publication US20100093064A1, “Metagenomic Functional Selection” (PRESIDENT AND FELLOWS OF HARVARD COLLEGE, priority 2008, published 2010)

Key:
[1] = tested on: E. coli; test: Kinetic growth / biomass yield analysis in liquid LB-chlor with inhibitor; type: cell-based, Escherichia coli; details: for Improvement in biomass yield due to selected metagenomic insert: vs E. coli control, at the inhibitor concentration giving 90% reduction of wild type biomass yield, mgFurAc/2-furoic acid, mgSyrAld/syringaldehyde, mgMetCat/4-methylcatechol; for Inhibitor concentration resulting in 90% reduction in growth yield: wild-type/control E. coli, 24 hours of growth at 37° C.
Procedure: […] DNA library clones conferring tolerance to each of three inhibitors were chosen for further analysis of encoded functional parts from the selected inhibitor plates. For 4-methycatechol, 5 tolerant clones each were chosen from selected mgDNA libraries 1, 3, 4, and 5 (FIG. 2A). For 2-furoic acid, 6-7 tolerant clones each were chosen from selected mgDNA libraries 1, 3 and 4 (FIG. 2A). For syringaldehyde, 10 tolerant clones each were chosen from selected mgDNA libraries 4 and 5 (FIG. 2A). Each colony was grown to saturation (16-18 hours) at 37° C. with shaking in liquid LB medium containing 12.5 μg/mL-chloramphenicol (hereon referred to as LB-chlor). Saturated cultures were diluted 1:40 in fresh LB-chlor and grown to mid-log phase (1-2 hours) at 37° C. with shaking. Log-phase cultures were inoculated (1:40) into LB-chlor containing one of three concentrations of the relevant inhibitor (4-methylcatechol: 0.2, 0.6 and 1 g/L; 2-furoic acid: 0.8, 7.9, 15 g/L; syringaldehyde: 1.55, 1.775 and 2 g/L), with concentrations chosen to sparsely span the range of previously reported inhibitory concentrations of these compounds (J. Zaldivar, L. O. Ingram, Biotechnol Bioeng 66, 203 (1999); J. Zaldivar, A. Martinez, L. O. Ingram, Biotechnol Bioeng 65, 24 (Oct. 5, 1999); J. Zaldivar, A. Martinez, L. O. Ingram, Biotechnol Bioeng 68, 524 (Jun. 5, 2000)). Biomass yield after 24 hours of growth at 37° C. with shaking was determined by end-point turbidity measurements at 600 nm using a Versamax microplate reader (Molecular Devices).
Three mgDNA clones per inhibitor with the highest biomass differential when compared to the E. coli control were chosen for kinetic growth analysis. Growth kinetics were measured at 11 concentrations per inhibitor, evenly spanning the following concentration ranges: 0-1 g/L 4-methylcatechol, 0-1.5 g/L 2-furoic acid, and 0-3 g/L syringaldehyde. Kinetic measurements were done in triplicate for each mgDNA clone and E. coli control by 600 nm measurements every 5 minutes over 24 hours at 37° C. with shaking in a Versamax microplate reader.
To determine whether the observed tolerance in the selected clones was a result of functional parts encoded by mgDNA, fosmids from the 3 kinetically characterized mgDNA clones per inhibitor were extracted using the FosmidMAX DNA Purification Kit (catalog #FMAX046, Epicentre Biotechnologies). Purified fosmids were then retransformed into an electro-competent version of the same control E. coli strain using a standard electroporation protocol. 3 transformant colonies for each of the 3 kinetically characterized mgDNA clones per inhibitor were chosen for a repeat of the inhibitor tolerance kinetic growth analysis (see above). All of the retransformed fosmids for 4-methylcatechol and 2-furoic acid and 2 of the 3 retransformed fosmids for syringaldehyde recapitulated the improved inhibitor tolerance compared to the E. coli control seen for the original mgDNA selected clones. […] Kinetic growth plots for the mgDNA clone with the best improvements in biomass yield at these concentrations per inhibitor are shown in FIG. 4, over a range of inhibitor concentrations. These selected clones were from mgDNA library 3 for 2-furoic acid (mgFurAc), library 4 for syringaldehyde (mgSyrAld), and library 3 for 4-methylcatechol (mgMetCat).

[2] = tested on: E. coli; test: Selective inhibitory concentration of lignocellulosic compounds in LB-agar; type: cell-based, Escherichia coli; details: 48 hours of growth at 37° C., lowest concentration tested which prevented colony formation
Procedure: The inhibitory concentrations of 14 lignocellulosic compounds in LB-agar (Table 2) were determined for two versions of the E. coli strain used to create the mgDNA libraries—a strain with a control pCC1FOS fosmid insert containing E. coli genomic DNA, and an untransformed strain. […] A range of concentrations for each lignocellulosic compound were tested, based on inhibitory concentrations for E. coli previously reported (1-3).

[3] = tested on: oral and gut human-associated microbiome isolates; test: Antibiotic resistance profiling of human-associated microbiome isolates; type: cell-based, bacteria isolated from human sputum and fecal samples; details: for Microbiome isolates resistant, on average: 1102 oral and gut isolates, antibiotic 20 mg/L in LB
Procedure: Three sputum samples (oral microbiomes) and two fecal samples (gut microbiomes) were collected from three healthy volunteers at three different sampling times (day 1, 140 and 141), and fresh samples were plated on Luria broth (LB) agar. […]. Cultures were incubated for 16 hours at 37° C. and growth was assayed by absorption at 600 nm.

SMILES | Inhibitory Concentration [2] | also measured
O=C(O)c1ccco1 [2-Furoic acid] | 0.80 g/L | Improvement in biomass yield due to selected metagenomic insert [1]: 6.9 fold; Inhibitor concentration resulting in 90% reduction in growth yield [1]: 1.05 g/L
O=C(O)c1ccc(O)cc1 [4-hydrobenzoic acid] | 7.90 g/L | –
O=Cc1ccc(O)cc1 [4-hydroxy-benzaldhehyde] | 1.25 g/L | –
CC(=O)O [Acetic Acid] | 5.00 g/L | –
CCO [Ethanol] | 55.00 g/L | –
O=CO [Formic acid] | 1.15 g/L | –
O=Cc1ccco1 [Furfural] | 2.95 g/L | –
Oc1ccc(O)cc1 [Hydroquinone] | 1.85 g/L | –
CC(=O)CCC(=O)O [Levulinic acid] | 3.00 g/L | –
Cc1ccc(O)c(O)c1 [Methylcatechol, 4-methylcatechol] | 0.20 g/L | Improvement in biomass yield due to selected metagenomic insert [1]: 6.0 fold; Inhibitor concentration resulting in 90% reduction in growth yield [1]: 0.33 g/L
COc1cc(C=O)cc(OC)c1O [Syringaldehyde] | 1.55 g/L | Improvement in biomass yield due to selected metagenomic insert [1]: 5.7 fold; Inhibitor concentration resulting in 90% reduction in growth yield [1]: 1.33 g/L
COc1cc(C(=O)O)cc(OC)c1O [Syringic acid] | 9.55 g/L | –
COc1cc(C(=O)O)ccc1O [Vanillic acid] | 8.08 g/L | –
COc1cc(C=O)ccc1O [Vanillin] | 1.50 g/L | –
CC1(C)S[C@@H]2[C@H](NC(=O)C(C(=O)O)c3ccccc3)C(=O)N2[C@H]1C(=O)O (some centres unmarked) [carbenicillin] | – | Microbiome isolates resistant, on average [3]: 39%
O=C(N[C@H](CO)[C@H](O)c1ccc([N+](=O)[O-])cc1)C(Cl)Cl [chloramphenicol] | – | Microbiome isolates resistant, on average [3]: 7%; Susceptibility of gut microbiome isolates ([3]; gut isolates from all sampling times, 20 mg/L): almost completely susceptible; O3 day 1 isolates resistant ([3]; oral microbiome O3, day 1, 20 mg/L): 87%
O=C(O)c1cn(C2CC2)c2cc(N3CCNCC3)c(F)cc2c1=O [ciprofloxacin] | – | Microbiome isolates resistant, on average [3]: 26%
C[C@H]1COc2c(N3CCN(C)CC3)c(F)cc3c(=O)c(C(=O)O)cn1c23 [levofloxacin] | – | Microbiome isolates resistant, on average [3]: 22%
